Source: patent US20060052432A1, “Pharmaceutical compositions with improved dissolution” (priority 2002, published 2006)
Structures can show the parent of a compound that is named as a salt.

Experiments:
[1] = Pharmacokinetic studies in rats, 5 mg/kg oral doses; format: in vivo, male Sprague-Dawley rats; conditions: gelatin capsule, sodium salt blended 1:4 with polyvinylpyrrolidone, compared with CELEBREX
Method: The sodium salt form (from Example 6) was compared with CELEBREX powder in terms of absorption in rats (FIGS. 4A and 4B).
Solids were placed in size 9 gelatin capsules (Torpac) and dosed via gavage needle, followed by oral gavage of 1 mL water. CELEBREX granulation was transferred from commercial 200 mg capsules. The sodium salt was blended with polyvinylpyrrolidone (e.g. PovidoneK30) in a 1:4 mixture. The plots are averages of plasma levels at each of the time points from plasma of 5 rats.

[2] = Administration of celecoxib compositions to dogs (plasma pharmacokinetics); conditions: single oral dose, 5 mpk, male dogs
[3] = In vitro dissolution studies in simulated gastric fluid; format: physicochemical
Method: 1. […] The celecoxib salt was ground using mortar and pestle until fine powder was formed. […] 2. Formulation Preparation • a. Fresh PLURONIC excipient was dispensed into a mortar. If initially a solid at room temperature, the PLURONIC was ground until a smooth powder was formed. • b. If HPC was to be added, it was dispensed after the PLURONIC excipient. […] 3. Dissolution Assay • a. A water bath was set up at 37 degrees C. • b. Simulated gastric fluid in the fasted state (SGF) was prepared at pH 1.7 and diluted five times with deionized water. […] The simulated gastric fluid was diluted five times to simulate the effect of drinking a glass of water with the medication. The SGF was pre-heated to 37 degrees C. • c. The formulation was placed in a 20 mL scintillation vial. • d. A 10 mm x 3 mm stir bar was added. • e. Diluted SGF was added to the formulation. […] The vial was placed in the water bath and allowed to stir. • g. […] The first ⅔ of filtrate was discarded as waste and the last ⅓ was collected into an eppendorf tube. 0.1 mL of the collected filtrate was immediately transferred to an autosampler vial and diluted ten times with 0.9 mL of methanol. The autosampler vials were crimp sealed and submitted for content analysis using high performance liquid chromatography with ultraviolet detection. In Vitro Dissolution Studies of PLURONIC Excipients - Results: […]

[4] = Solubility of celecoxib sodium salt in the presence of polyvinylpyrrolidone; format: physicochemical; conditions: added to aqueous PVP, or water added to dry blend with PVP
[5] = Solubility in water; format: physicochemical
[6] = commercially available neutral form; cited from earlier work
[7] = according to WO 01/78724; cited from earlier work
[8] = pKa; format: physicochemical

In the case of `Cc1ccc(-c2cc(C(F)(F)F)nn2-c2ccc(S(N)(=O)=O)cc2)cc1` [celecoxib sodium salt, sodium salt of 4-[5-(4-methylphenyl)-3-(trifluoromethyl)-1H-pyrazol-1-yl]benzenesulfonamide], the “peak level of the drug in plasma” value [1] is reported as “faster peak level of the drug in plasma” and the “maximum blood serum concentration reached faster than for celecoxib” value [2] is reported as 40%.

For `CCOCCOCCO` [Transcutol P], the “effect on dissolution of celecoxib free acid” value [3] was “does not enhance dissolution of the free acid”.

For `Cc1ccc(-c2cc(C(F)(F)F)nn2-c2ccc(S(N)(=O)=O)cc2)cc1` [celecoxib, 4-[5-(4-methylphenyl)-3-(trifluoromethyl)-1H-pyrazol-1-yl]benzenesulfonamide], the “dissolution in aqueous polyvinylpyrrolidone” value [4] was “did not dissolve”, the “ability to be maintained as a supersaturated solution” value [5] was “cannot be maintained as a supersaturated solution for any appreciable time” and the solubility [5] was < 1 µg/mL. The “solubility in water (in words)” value [6] was “essentially insoluble in water” and the “solubility in Transcutol P” value [7] was 350 mg/g.

For `Cc1onc(-c2ccccc2)c1-c1ccc(S(N)(=O)=O)cc1` [Valdecoxib, 4-(5-methyl-3-phenyl-4-isoxazolyl)benzene sulfonamide], the pKa [8] is given as ~11 and the “solubility in water (in words)” value [6] is given as “essentially insoluble in water”.
